Columns and labels:
Format in all cases: cell-based
[1] = molecular target: T1, NK3 (Homo sapiens, UniProt P29371); assay: Signal transduction (ST), intracellular Ca++ (FLIPR), NK3; details: antagonist, read-out: NK3 pIC50 (converted)
T1 sequence (P29371 1-465): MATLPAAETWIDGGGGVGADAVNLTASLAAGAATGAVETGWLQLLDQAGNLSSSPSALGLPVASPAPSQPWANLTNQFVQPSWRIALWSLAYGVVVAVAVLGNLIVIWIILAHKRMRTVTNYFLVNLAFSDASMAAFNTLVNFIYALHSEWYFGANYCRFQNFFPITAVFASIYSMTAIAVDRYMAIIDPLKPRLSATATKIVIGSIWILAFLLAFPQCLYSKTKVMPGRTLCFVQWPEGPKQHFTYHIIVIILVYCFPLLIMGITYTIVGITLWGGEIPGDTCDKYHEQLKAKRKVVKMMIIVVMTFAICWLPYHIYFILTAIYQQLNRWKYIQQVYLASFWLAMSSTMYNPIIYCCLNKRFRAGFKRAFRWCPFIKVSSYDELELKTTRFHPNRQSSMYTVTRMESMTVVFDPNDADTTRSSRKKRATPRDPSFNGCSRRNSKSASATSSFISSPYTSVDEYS

[2] = molecular target: T2, NK2 (Homo sapiens, UniProt P21452); assay: Signal transduction (ST), intracellular Ca++ (FLIPR), NK2; details: antagonist, read-out: NK2 pIC50 (converted)
T2 sequence (P21452 1-398): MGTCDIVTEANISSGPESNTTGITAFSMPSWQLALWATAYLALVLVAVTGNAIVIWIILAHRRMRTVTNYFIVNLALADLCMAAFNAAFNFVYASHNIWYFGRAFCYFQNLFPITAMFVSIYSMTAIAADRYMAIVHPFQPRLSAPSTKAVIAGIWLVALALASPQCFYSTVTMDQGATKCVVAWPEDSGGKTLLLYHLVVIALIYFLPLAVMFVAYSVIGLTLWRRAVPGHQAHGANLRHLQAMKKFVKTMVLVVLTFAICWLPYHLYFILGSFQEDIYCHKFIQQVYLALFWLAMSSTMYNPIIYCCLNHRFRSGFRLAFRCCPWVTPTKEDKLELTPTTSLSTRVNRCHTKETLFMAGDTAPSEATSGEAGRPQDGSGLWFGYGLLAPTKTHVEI

[3] = molecular target: NK1 (Homo sapiens, UniProt P25103); assay: Signal transduction (ST), intracellular Ca++ (FLIPR), functional NK1 antagonistic activity; details: antagonist, read-out: NK1 pIC50 (converted)
Sequence of NK1 (P25103 whole entry): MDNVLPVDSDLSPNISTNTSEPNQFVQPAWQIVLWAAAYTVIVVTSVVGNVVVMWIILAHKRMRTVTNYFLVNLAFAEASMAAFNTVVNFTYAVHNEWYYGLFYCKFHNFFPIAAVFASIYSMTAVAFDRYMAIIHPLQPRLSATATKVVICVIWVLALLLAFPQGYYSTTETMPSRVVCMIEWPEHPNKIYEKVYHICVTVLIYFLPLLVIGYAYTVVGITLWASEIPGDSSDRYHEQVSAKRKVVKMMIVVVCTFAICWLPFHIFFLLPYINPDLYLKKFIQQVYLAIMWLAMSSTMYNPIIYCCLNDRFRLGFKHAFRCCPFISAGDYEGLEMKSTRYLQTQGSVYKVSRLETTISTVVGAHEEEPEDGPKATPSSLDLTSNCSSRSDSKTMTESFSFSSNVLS
How it was run: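 Confluent cells were loaded with 2 μM Fluo3 for 1 h at 37° C, then washed into Krebs buffer pH 7.4 with 1.25 mM CaCl2 and 2.5 mM probenecid. Antagonists were preincubated 20 min at RT before agonist addition. Peak Ca++ transients were read by FLIPR, with EC50 or IC50 from sigmoidal non-linear regression.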

SMILES | IC50 [1] [µM] | IC50 [2] [µM] | IC50 [3] [µM]
O=C(C1CCOC1)N1CCCC2(CCN([C@H]3CCN(C(=O)c4cc(C(F)(F)F)cc(C(F)(F)F)c4)[C@H](Cc4ccccc4)C3)CC2)C1 (stereo partly drawn) [Compound 174] | > 10 | 6.92 | 0.0407
CC(C)(C)OC(=O)N1CCCC1C(=O)N1CCC2(CC1)CCN(C(=O)[C@H]1CCN(C(=O)c3cc(C(F)(F)F)cc(C(F)(F)F)c3)[C@H](Cc3ccccc3)C1)CC2 (stereo partly drawn) [Compound 188] | 3.72 | 5.5 | 0.0151
CC1CC1C(=O)N1CCC2(CC1)CCN([C@H]1CCN(C(=O)c3cc(C(F)(F)F)cc(C(F)(F)F)c3)[C@H](Cc3ccccc3)C1)CC2 (stereo partly drawn) [Compound 15] | 7.94 | 3.16 | 0.129
O=C(C1CC1)N1CCCC2(CCCN([C@H]3CCN(C(=O)c4cc(C(F)(F)F)cc(C(F)(F)F)c4)[C@H](Cc4ccccc4)C3)C2)C1 (stereo partly drawn) [Compound 208] | 4.27 | 2.63 | 0.347
O=C1CC2(CCN1Cc1ccccc1F)CCN([C@@H]1CCN(C(=O)c3cc(C(F)(F)F)cc(C(F)(F)F)c3)[C@H](Cc3ccccc3)C1)CC2 [Compound 203] | > 10 | 3.39 | 0.661
O=C(CC1CCCCC1)N1CCC2(CC1)CCN([C@H]1CCN(C(=O)c3cc(C(F)(F)F)cc(C(F)(F)F)c3)[C@H](Cc3ccccc3)C1)CC2 [Compound 71] | > 10 | 9.77 | 0.0933
CC(C)(C)C1CCC(C(=O)N2CCC3(CC2)CCN([C@H]2CCN(C(=O)c4cc(C(F)(F)F)cc(C(F)(F)F)c4)[C@H](Cc4ccccc4)C2)CC3)CC1 (stereo partly drawn) [Compound 40] | > 10 | > 10 | 0.977
O=C(c1ccccn1)N1CCC2(CC1)CCN([C@H]1CCN(C(=O)c3cc(C(F)(F)F)cc(C(F)(F)F)c3)[C@H](Cc3ccccc3)C1)CC2 [Compound 49] | > 10 | 3.98 | 0.107
O=C(C1CCCC1)N1CCC2(CC1)CCN([C@@H]1CCN(C(=O)c3cc(C(F)(F)F)cc(C(F)(F)F)c3)[C@H](Cc3ccccc3)C1)CC2 [Compound 18] | 4.68 | 1.2 | 0.0204
O=C(c1cc(C(F)(F)F)cc(C(F)(F)F)c1)N1CC[C@H](N2CCC3(CC2)CCN(S(=O)(=O)c2cc(Cl)cc(Cl)c2)CC3)C[C@H]1Cc1ccccc1 [Compound 114] | > 10 | > 10 | 0.363
O=C(C1CCOC1)N1CCCC2(CCCN(C3CCN(C(=O)c4cc(C(F)(F)F)cc(C(F)(F)F)c4)C(Cc4ccccc4)C3)C2)C1 (single isomer, unassigned) [Compound 211] | ~10 | 4.57 | 0.282
O=C(C=Cc1ccoc1)N1CCC2(CC1)CCN([C@H]1CCN(C(=O)c3cc(C(F)(F)F)cc(C(F)(F)F)c3)[C@H](Cc3ccccc3)C1)CC2 [Compound 85] | > 10 | > 10 | 0.309
O=C1CC2(CCN1CC1CCC1)CCN([C@@H]1CCN(C(=O)c3cc(C(F)(F)F)cc(C(F)(F)F)c3)[C@H](Cc3ccccc3)C1)CC2 [Compound 197] | 6.46 | 2.88 | 0.191
O=C(c1cc2ccccc2o1)N1CCC2(CC1)CCN([C@H]1CCN(C(=O)c3cc(C(F)(F)F)cc(C(F)(F)F)c3)[C@H](Cc3ccccc3)C1)CC2 [Compound 64] | > 10 | > 10 | 0.891
O=C(c1ccc2c(c1)OCO2)N1CCC2(CC1)CCN([C@@H]1CCN(C(=O)c3cc(C(F)(F)F)cc(C(F)(F)F)c3)[C@H](Cc3ccccc3)C1)CC2 [Compound 63] | > 10 | 7.94 | 0.437
COc1ccc(OC)c(S(=O)(=O)N2CCC3(CCN([C@H]4CCN(C(=O)c5cc(C(F)(F)F)cc(C(F)(F)F)c5)[C@H](Cc5ccccc5)C4)CC3)CC2)c1 [Compound 123] | > 10 | ~4.07 | 0.0708
O=C(c1ccco1)N1CCCC2(CCN([C@H]3CCN(C(=O)c4cc(C(F)(F)F)cc(C(F)(F)F)c4)[C@H](Cc4ccccc4)C3)CC2)C1 [Compound 176] | > 10 | ~6.46 | 0.0724

SMILES | IC50 [1] [µM] | IC50 [2] [µM] | IC50 [3] [µM]
O=C(c1ccc2nonc2c1)N1CCC2(CC1)CCN([C@H]1CCN(C(=O)c3cc(C(F)(F)F)cc(C(F)(F)F)c3)[C@H](Cc3ccccc3)C1)CC2 [Compound 68] | > 10 | 5.62 | 0.295
O=C(c1cc(C(F)(F)F)cc(C(F)(F)F)c1)N1CC[C@@H](N2CCC3(CCN(C(=O)C45CC6CC(CC(C6)C4)C5)CC3)CC2)C[C@H]1Cc1ccccc1 [Compound 59] | 5.89 | > 10 | 0.347
CC1(C)OC(=O)CC1C(=O)N1CCC2(CC1)CCN([C@H]1CCN(C(=O)c3cc(C(F)(F)F)cc(C(F)(F)F)c3)[C@H](Cc3ccc(F)c(F)c3)C1)CC2 (stereo partly drawn) [Compound 138] | > 10 | 4.68 | 0.0178
O=C(CN1CCCC1=O)N1CCC2(CC1)CCN([C@H]1CCN(C(=O)c3cc(C(F)(F)F)cc(C(F)(F)F)c3)[C@H](Cc3ccccc3)C1)CC2 [Compound 78] | > 10 | > 10 | 0.269
CC1(C(=O)N2CCC3(CC2)CCN([C@H]2CCN(C(=O)c4cc(C(F)(F)F)cc(C(F)(F)F)c4)[C@H](Cc4ccccc4)C2)CC3)CCCCC1 [Compound 37] | > 10 | 8.13 | 0.0955
O=C(c1cc(C(F)(F)F)cc(C(F)(F)F)c1)N1CC[C@H](N2CCC3(CC2)CCN(S(=O)(=O)c2cc(Cl)c(Cl)s2)CC3)C[C@H]1Cc1ccccc1 [Compound 96] | ~10 | 1.26 | 0.468
Cc1nnsc1C(=O)N1CCC2(CCN(C[C@H]3CCN(C(=O)c4cc(C(F)(F)F)cc(C(F)(F)F)c4)[C@H](Cc4ccccc4)C3)CC2)CC1 [Compound 183] | 7.41 | 7.76 | 0.017
O=C(c1ccoc1)N1CCC2(CC1)CCN([C@H]1CCN(C(=O)c3cc(C(F)(F)F)cc(C(F)(F)F)c3)[C@H](Cc3ccccc3)C1)CC2 [Compound 24] | 1.32 | > 10 | 0.112
CN1CCC=C(C(=O)N2CCC3(CC2)CCN([C@H]2CCN(C(=O)c4cc(C(F)(F)F)cc(C(F)(F)F)c4)[C@H](Cc4ccccc4)C2)CC3)C1 [Compound 48] | > 10 | > 10 | 0.219
O=C(C1CCOC1)N1CCC2(CCN(C[C@H]3CCN(C(=O)c4cc(C(F)(F)F)cc(C(F)(F)F)c4)[C@H](Cc4ccccc4)C3)CC2)CC1 (stereo partly drawn) [Compound 180] | > 10 | 8.32 | 0.0148
O=C(c1cc(C(F)(F)F)cc(C(F)(F)F)c1)N1CC[C@H](N2CCC3(CC2)CCN(S(=O)(=O)c2ccc(Cl)c(Cl)c2)CC3)C[C@H]1Cc1ccccc1 [Compound 113] | > 10 | > 10 | 0.427
N#Cc1ccc(C(=O)N2CCC3(CC2)CCN([C@H]2CCN(C(=O)c4cc(C(F)(F)F)cc(C(F)(F)F)c4)[C@H](Cc4ccccc4)C2)CC3)cc1 [Compound 43] | > 10 | 3.63 | 0.105
Cc1nc2ccc(C(=O)N3CCC4(CC3)CCN([C@H]3CCN(C(=O)c5cc(C(F)(F)F)cc(C(F)(F)F)c5)[C@H](Cc5ccccc5)C3)CC4)cc2[nH]1 [Compound 67] | > 10 | 9.77 | 0.0575
Cc1ccc(OCC(=O)N2CCC3(CC2)CCN([C@H]2CCN(C(=O)c4cc(C(F)(F)F)cc(C(F)(F)F)c4)[C@H](Cc4ccccc4)C2)CC3)c(C)c1 [Compound 74] | > 10 | > 10 | 0.389
O=C(c1cnccn1)N1CCC2(CC1)CCN([C@H]1CCN(C(=O)c3cc(C(F)(F)F)cc(C(F)(F)F)c3)[C@H](Cc3ccccc3)C1)CC2 [Compound 52] | > 10 | 2.88 | 0.0603
O=C(C1CC1)N1CCC2(CC1)CCN([C@H]1CCN(C(=O)c3cc(C(F)(F)F)cc(C(F)(F)F)c3)[C@H](Cc3ccc(F)c(F)c3)C1)CC2 [Compound 136] | 0.692 | 2 | 0.017
Cc1nnsc1C(=O)N1CCC2(CC1)CCN([C@H]1CCN(C(=O)c3cc(C(F)(F)F)cc(C(F)(F)F)c3)[C@H](Cc3ccccc3)C1)CC2 [Compound 36] | > 10 | 4.27 | 0.0282
